The record followed here is patent publication US20090155785A1, “REAL-TIME COLORIMETRIC SCREENING INHIBITORS OF ENDONUCLEASE WITH GOLD NANOPARTICLE SUBSTRATE” (NORTHWESTERN UNIVERSITY, priority 2007, published 2009).

The subject of test [1] is DNase I. As to the kind of experiment: Colorimetric DNase I inhibition assay, hybridized gold nanoparticle aggregates without linker oligonucleotide (Example 1). The test is classed as biochemical. To be noted: inhibitor 1 μM, DNase I 15 units/ml, extinction at 520 nm, room temperature; control 6.8 min. Here is the method:
In addition to screening enzyme activity, one can easily use the assay to evaluate the efficiency of inhibitors of DNase I. In a typical screening experiment, DNase I (15 units/ml) was added to solutions of the DNA-linked gold nanoparticle aggregates in the presence of one of the following DNA binding molecules: amsacrine (AMSA), anthraquinone-2-carboxylic acid (AQ2A), 9-aminoacridine (9-AA), ellipticine (EIPT), daunorubicin (DNR), ethidium bromide (EB) and 4′,6-diamidedino-2-phenylindole (DAPI) (1 μM), respectively. These DNA binding molecules are known to inhibit DNase I. (See R. A. Ikeda, P. B. Dervan, J. Am. Chem. Soc., 104: 296 (1982); S. M. Forrow, M. Lee, R. L. Souhami, J. A. Hartley, Chem. Biol. Interact., 96: 125 (1995); P. G. Baraldi, A. Bovero, F. Fruttarolo, D. Preti, M. A. Tabrizi, M. G. Pavani, R. Romagnoli, Med. Res. Rev., 24: 475 (2004)). Extinction was monitored at 520 nm as a function of time (sample scan rate=5 min^−), and the color of the solution was followed with the naked eye. The time at which 50% of the aggregate is hydrolyzed (TH) can be used as a measure of inhibition (FIG. 6). The inhibitors decrease DNase I activity and increase the TH and, therefore, the corresponding time required for a color change in the solution. […] The trend is determined based on TH, which is consistent with the relative binding affinities of the inhibitors to DNA, as determined by measuring the melting temperature of the duplex DNA in the presence of each DNA-binding molecule (FIG. 6 and Table 1 below).
The relative binding affinities of the inhibitors to DNA are consistent with the hydrolysis time (TH) of the aggregates by DNase I in the presence of a specific inhibitor. TH is determined by measuring the extinction at 520 nm and determining when half of the particles composing the aggregates have been released.
AuNP-1 and AuNP-2 were functionalized with 3′-thiol-modified 30-mer oligonucleotides (AuNP-1, DNA-1 sequence: 5′-[…]-A10-SH-3′, SEQ ID NO: 1; AuNP-2, DNA-2 sequence: 5′-[…]-A10-SH-3′, SEQ ID NO:2) using previously reported methods. (See J. J. Storhoff, R. Elghanian, R. C. Mucic, C. A. Mirkin, R. L. Letsinger, J. Am. Chem. Soc., 120: 1959 (1998)). After combining 1 ml aliquots of the two probes, AuNP-1 and AuNP-2 (each at 3 nM), in hybridization buffer (50 mM Tris-HCl buffer pH 7.0, 2 mM MgCl2), the mixture was heated to 90° C. and held at this temperature for 10 minutes.
The pre-prepared gold nanoparticle aggregates were washed (3 times) with DNase I buffer (10 mM sodium phosphate buffer pH 7.0, 0.75 mM MgCl2). They were then resuspended in 1 ml of DNase I buffer. A 10 μL aliquot of each of the endonuclease inhibitors (0.1 mM) was then added to a 1 ml solution of the aggregates, respectively, and incubated for 10 minutes. The assay was initiated by adding DNase I, and the hydrolysis kinetics were monitored by UV-vis spectroscopy (Cary 5000, Varian). The solution was continuously stirred with a magnetic stir bar at room temperature to keep the aggregates suspended.

For test [2], the system named is duplex DNA. The test can be described thus: Melting temperature of duplex DNA (without nanoparticles) in the presence of DNA binding molecule. To be noted: DNA duplex 2.0 μM, sodium phosphate buffer 10 mM pH 7.0, NaCl 100 mM, DNA binding molecule 5.0 μM, control 61.0.
The subject of test [3] is DNase I. As to the kind of experiment: Colorimetric DNase I inhibition assay, ligated gold nanoparticle aggregates with linker oligonucleotide (Example 2). The test is classed as biochemical. Particulars: for t (releasing time; time required to hydrolyze 50% of the aggregates): inhibitor 1 μM, DNase I 15 units/ml, extinction at 520 nm, ligated aggregates, control 9.5 min. Here is the method: A typical screening experiment was slated by adding the DNase I to solutions of the gold nanoparticle aggregates in the presence of one of the DNA binding molecules, amsacrine (AMSA), anthrquinone-2-carboxylic acid (AQ2A), 9-aminoacridine (9-AA), ellipticine (EIPT), daunorubicin (DNR), ethidium bromide (EB) and 4′,6-diamidedino-2-phenylindole (DAPI) (1 μM), respectively. The color changes of the solutions were monitored at 520 nm by UV-vis spectrometry over time (sample scan rate=2 min^−1). The inhibitors can decrease DNase I activity and increase the hydrolysis time and the corresponding time required for a color change in the solution. Thus, we could determine the relative activities of different endonuclease inhibitors by measuring the time required to hydrolyze 50% of the aggregates (t). […] The hydrolysis time is consistent with relative binding affinities of inhibitors to DNA by determining the melting temperature (Tm) of duplex DNA at 260 nm in the presence of each DNA-binding molecule.
High-throughput screening is widely used for the identification of hit compounds from combinatorial libraries. (See P. A. Johnston, P. A. Johnston, Drug Discovery Today, 7: 353 (2002); D. L. Boger, J. Deshamais, K. Capps, Angew. Chem. Int. Ed., 42: 4138 (2003); S. Wang, T. B. Sim, Y.-S. Kim, Y.-T. Chang, Cum Opin. Cham. Biol., 8: 371 (2004)). We have examined the application of the gold nanoparticle aggregates for high throughput screening of endonuclease inhibitors by visual inspection. […] Thus, we can determine potencies of inhibitor using color change as a function of time. […] The trend of potencies of inhibitors was determined to be DAPI>EB>DNR>9-AA, EIPT, and AQ2A>AMSA, which is consistent with the control experiments involving serial analysis of each inhibitors with nanoparticle-free duplex DNA.
Two separate types of DNA-AuNPs were prepared by functionalizing 13 nm gold nanoparticles with two different thiol-modified oligonucleotide strands, AuNP-3 and AuNP-4. AuNP-3 was functionalized with 3′-hydroxyl-modified and 5′-thiol-modified 15-mer oligonucleotides (DNA-3 sequence: 5′-SH-A10-CGTTAGGACTTACGC-OH-3′, SEQ ID NO:3). DNA-3 is complementary to one-half of the 30-mer linker oligonucleotide (DNA-linker oligonucleotide sequence: 5′ […]-3′, SEQ ID NO:5). AuNP-4 was functionalized with 3′-thiolated and 5′-phosphorylated 15-mer oligonucleotides (DNA-4: 5′-PO4^3−-TTATAACTATTCCTA-A10-SH-3′, SEQ ID NO:4) that are complementary to the other half of the linker-oligonucleotide. After combining the three components, AuNP-3 and AuNP-4 (each at 3 nM) as well as the linker-oligonucleotides (3 μM), in the presence of ligation buffer (50 mM Tris-HCl buffer pH 7.5, 5 mM MgCl2, […], 0.05 mg/ml BSA, T4 DNA Ligase 4.000 units/ml), the DNAs assemble to form a three-strand DNA hybridization complex. First the linker-oligonucleotide acts as templates to co-align the 3′-hydroxyl group of the DNA-3 and the 5′-phosphate group of the DNA-4. Then the T4 DNA Ligase catalyzes the formation of a phosphodiester bond between the 3′-hydroxyl and the 5′-phosphate groups of DNA-3 and DNA-4, covalently joining DNA-3 and DNA-4 to form a 30-mer oligonucleotide. This method yield stable 30-base-pair double stranded links between the AuNPs. Since the nanoparticles aggregate, a red-to-purple color change can be observed.
The prepared gold nanoparticle aggregate was washed (3 times) with DNase I buffer (10 mM sodium phosphate buffer pH 7.0, 0.25 mM MgCl2). The assay was initiated by adding DNase I (10-50 units/ml) and the hydrolysis kinetics were monitored by a UV-vis spectrum at the extinction of 520 nm with stirring at room temperature.

Take `Nc1c2ccccc2nc2ccccc12` [9-AA, 9-aminoacridine]: the “TH (time at which 50% of the aggregate is hydrolyzed by DNase I)” value in test [1] came to 24.6 min. The “Tm (melting temperature of duplex DNA in the presence of endonuclease inhibitor)” value in test [2] (Table 1) came to 62.5 °C; in test [2] (Table 2, at 260 nm) it was 62.5 °C. Besides, in test [3], the “t (releasing time; time required to hydrolyze 50% of the aggregates)” value was found to be 16.0 min.
For `O=C(O)c1ccc2c(c1)C(=O)c1ccccc1C2=O` [AQ2A, anthraquinone-2-carboxylic acid], in test [1], the “TH (time at which 50% of the aggregate is hydrolyzed by DNase I)” value came to 19.6 min. The “Tm (melting temperature of duplex DNA in the presence of endonuclease inhibitor)” value is 62.5 °C in test [2] (Table 1) and 62.5 °C in test [2] (Table 2, at 260 nm). The “t (releasing time; time required to hydrolyze 50% of the aggregates)” value in test [3] is on record as 14.5 min.
`N=C(N)c1ccc(-c2cc3ccc(C(=N)N)cc3[nH]2)cc1` [DAPI, 4′,6-diamidedino-2-phenylindole]: in test [1], the “TH (time at which 50% of the aggregate is hydrolyzed by DNase I)” value came out at 101.2 min. Moreover, the “Tm (melting temperature of duplex DNA in the presence of endonuclease inhibitor)” value in test [2] (Table 1) worked out at 77.0 °C; in test [2] (Table 2, at 260 nm) it was 77.0 °C. Besides, in test [3], the “t (releasing time; time required to hydrolyze 50% of the aggregates)” value was more than 1440 min. Also, the “color change of aggregate solution by visual inspection after adding DNase I (FIG. 10)” value in test [3] (visual inspection, purple to red as a function of reaction time, no or slow change indicates inhibition) was “remains light purple throughout the examination time”.
For the molecule `COc1cccc2c1C(=O)c1c(O)c3c(c(O)c1C2=O)C[C@@](O)(C(C)=O)C[C@@H]3O[C@H]1C[C@H](N)[C@H](O)[C@H](C)O1` [DNR, daunorubicin], the “TH (time at which 50% of the aggregate is hydrolyzed by DNase I)” value in test [1] is recorded as 43.2 min. The “Tm (melting temperature of duplex DNA in the presence of endonuclease inhibitor)” value in test [2] (Table 1) worked out at 65.5 °C; in test [2] (Table 2, at 260 nm) it was 65.5 °C. In addition, the “t (releasing time; time required to hydrolyze 50% of the aggregates)” value in test [3] is 31.5 min.
As for `Cc1c2ccncc2c(C)c2c1[nH]c1ccccc12` [EIPT, ellipticine], in test [1], the “TH (time at which 50% of the aggregate is hydrolyzed by DNase I)” value was determined as 25.2 min. In addition, the “Tm (melting temperature of duplex DNA in the presence of endonuclease inhibitor)” value in test [2] (Table 1) is 63.0 °C; in test [2] (Table 2, at 260 nm) it was 63.0 °C. Further, in test [3], the “t (releasing time; time required to hydrolyze 50% of the aggregates)” value worked out at 15.0 min.
